Values after ≈ are worked out from the molar mass of the structure shown.
Experiments:
HepG2 cells = settings: cited from earlier work
[1] = parameters: method as in PMID 31125040; settings: cited from earlier work
MCF-7 = system: MCF-7; parameters: method as in PMID 26072042; settings: cited from earlier work
SMMC-7721 = system: SMMC-7721; parameters: method as in PMID 26072042; settings: cited from earlier work
HepG-2 = system: HepG-2; parameters: method as in PMID 26072042; settings: cited from earlier work
[2] = system: HT22 cells (mouse hippocampal neuroblastoma cell line); parameters: method as in doi:10.1007/s11101-018-9561-5, PMID 25794817; settings: 100 µM, 24 h; cited from earlier work
[3] = system: COLO 320/MDR-LRP multidrug-resistant human colonic adenocarcinoma cells; test: MTT antiproliferative assay, COLO 320; assay type: cell-based; settings: Homo sapiens, COLO 320, 72 h, COLO 320 (multidrug-resistant), read-out: IC50 (µM) ± SD COLO 320
Procedure: (§1) The antiproliferative effects of the isolated phenanthrenes (compounds 1–19) were evaluated using human cancer cell lines, including doxorubicin-sensitive colonic adenocarcinoma COLO 205 and multidrug-resistant colonic adenocarcinoma COLO 320/MDR-LRP (which expresses P-glycoprotein [MDR1] and LRP), as well as non-cancerous human lung fibroblast CCD-19Lu cells. CCD-19Lu was chosen because it is a well-characterized, non-tumorigenic cell line commonly used to assess general cytotoxicity. Moreover, data from the literature support the use of lung fibroblast cell lines—including CCD-19Lu—as normal controls in studies involving colon cancer cells such as Colo 205 and Colo 320 [33]. The thiazolyl blue tetrazolium bromide (MTT) assay was employed to determine the concentration of each compound required to inhibit 50% of the cell viability (IC50), as summarized in Table 3.
(§2) The human colon adenocarcinoma cells—COLO 205 (CCL-222, doxorubicin-sensitive) and COLO 320/MDR-LRP (ATCC-CCL-220.1, multidrug-resistant, expressing P-gp)—were cultured in RPMI 1640 medium supplemented with 10% heat-inactivated fetal bovine serum, 2 mM of L-glutamine, 1 mM of sodium pyruvate, and 100 mM of HEPES. The non-cancerous human lung fibroblast cell line CCD-19Lu was maintained in Eagle’s Minimal Essential Medium (EMEM; containing 4.5 g/L of glucose) supplemented with a non-essential amino acid mixture, selected vitamins, and 10% heat-inactivated fetal bovine serum. All of the cell lines were detached using 0.25% trypsin and 0.02% EDTA for 5 min at 37 °C. The cell lines were obtained from LGC Promochem (Teddington, England).
(§3) Human colonic adenocarcinoma cell lines—doxorubicin-sensitive COLO 205 and multidrug-resistant COLO 320—as well as the non-cancerous human lung fibroblast cell line CCD-19Lu were used to evaluate the effects of the test compounds on cell proliferation. The assays were conducted in 96-well flat-bottomed microtiter plates. Stock solutions of the compounds were prepared in dimethyl sulfoxide (DMSO), with the final DMSO concentration kept below 1% in all samples. The compounds were diluted in 100 µL of the appropriate culture medium. Adherent cells were cultured in EMEM supplemented with 10% heat-inactivated fetal bovine serum and seeded into 96-well plates at a density of 6 × 10^3 cells per 100 µL per well. The cells were allowed to adhere for 24 h at 37 °C in a humidified incubator with 5% CO2. After incubation, the medium was removed and replaced with 100 µL of fresh medium. Serial dilutions of the compounds were prepared in separate plates and added to the cells, starting from a concentration of 100 µM with twofold serial dilutions (final concentration range: 100–0.19 µM). The cells were then incubated for 72 h at 37 °C. At the end of the incubation period, 20 µL of thiazolyl blue tetrazolium bromide (MTT) solution (5 mg/mL, Sigma) was added to each well. After 4 h of incubation at 37 °C, 100 µL of 10% sodium dodecyl sulfate (SDS) in 0.01 M HCl was added to solubilize the formazan crystals, and the plates were incubated overnight at 37 °C. Cell viability was assessed by measuring the optical density (OD) at 540/630 nm using a Multiscan EX ELISA reader (Thermo Labsystems, Cheshire, WA, USA).
(§4) The inhibitory concentration that reduced cell growth by 50% (IC50) was determined from the dose–response curves. The percent inhibition was calculated using the formula100 − ((OD_sample − OD_medium control)/(OD_cell control − OD_medium control)) × 100
(§5) Dose–response curves were generated by plotting the percent inhibition against the logarithm of the compound concentrations and fitted using Prism5 software (Version 6, GraphPad Software Inc., San Diego, CA, USA). The IC50 values were derived from four independent experiments conducted in parallel for each cell line and are reported as the mean values.

[4] = system: CCD-19Lu non-cancerous human lung fibroblast cells; test: MTT antiproliferative assay, CCD-19Lu; assay type: cell-based; settings: 72 h, CCD-19Lu non-tumorigenic fibroblasts, read-out: IC50 (µM) ± SD CCD-19Lu
Procedure: as §1, §2, §3, §4, §5

[5] = system: multidrug-resistant COLO 320 cells; test: Drug combination assay with doxorubicin (Chou-Talalay, MTT); assay type: cell-based, human
Procedure: One promising approach involves the discovery of new bioactive natural products. To explore this, a chemosensitivity assay was conducted to examine the in vitro interactions between the isolated compounds and the antineoplastic agent doxorubicin, a substrate of P-glycoprotein (P-gp). A combination chemotherapy model was applied using human COLO 320 colon carcinoma cells. The combination index (CI), calculated according to the Chou–Talalay method, was used to evaluate drug–drug interactions, classifying them as synergistic (CI < 1), additive (CI = 1), or antagonistic (CI > 1) (Table 4).
The multidrug-resistant COLO 320 cell line was used to perform the drug combination assay. Doxorubicin (2 mg/mL, Teva Pharmaceuticals, Budapest, Hungary) was serially diluted horizontally, starting with 8.6 µM. The resistance modifier was subsequently diluted vertically, with the starting concentration determined based on the IC50 value. Doxorubicin was diluted horizontally in 100 µL, while the resistance modifiers were diluted vertically in 50 µL in the microtiter plate. The compounds and doxorubicin were prepared as separate dilutions. The cells were seeded at a density of 6 × 10^3 cells per well into 100 µL of medium and incubated for 24 h at 37 °C in a 5% CO2 atmosphere prior to treatment. After this period, the culture medium was removed, and 50 µL of fresh medium was added to each well, followed by the addition of 50 µL of the diluted compounds, resulting in a final volume of 200 µL per well. The plates were then incubated for 72 h at 37 °C under 5% CO2. The cell viability was assessed at the end of incubation using the MTT assay, as described previously. Drug interactions were analyzed using CompuSyn software (Version 1.00).
The dose–response curves for individual agents and their combinations were fitted to a linear model based on the median-effect equation to calculate the median effective dose (IC50) and the slope (m). The quality of the fit was evaluated using the linear correlation coefficient (r), and only data with r > 0.90 are reported. The extent of drug interaction was quantified using the combination index (CI), where CI ≈ 1 indicated an additive effect, CI < 1 signified synergy, and CI > 1 denoted antagonism.

HeLa cells = system: HeLa cells; parameters: method as in PMID 33348712; settings: cited from earlier work
[6] = system: NCI 90 KB (human epidermoid nasopharynx carcinoma) cells; parameters: method as in PMID 830696; settings: NCI 90 KB cells; cited from earlier work
[7] = system: COLO 205 (doxorubicin-sensitive) human colonic adenocarcinoma cells; test: MTT antiproliferative assay, COLO 205; assay type: cell-based; settings: Homo sapiens, COLO 205, 72 h, read-out: IC50 (µM) ± SD COLO 205
Procedure: as §1, §2, §3, §4, §5

Compound: juncunol
- apoptotic cells (HepG2 cells; HepG2, concentration-dependent (IC50 value ± 25%)): increase in the number of apoptotic cells
- cell cycle arrest (HepG2 cells; HepG2): G0/G1 phase
- Δψm (HepG2 cells; HepG2): decrease in Δψm
- IC50 (HepG2 cells; HepG2 cells): 18 µM
- hemolytic properties [1]: no hemolytic properties

Compound: C=Cc1cc(O)cc2c1-c1cc(-c3c(O)cc(C=C)c4c3ccc3c(C)c(O)ccc34)c(O)c(C)c1CC2 [effususin B]
- IC50 (MCF-7): 12.5 µM
- IC50 (SMMC-7721): 13.6 µM
- IC50 (HepG-2): 12.9 µM

Compound: C=Cc1c(C)c(O)cc2c1-c1ccc(O)c(C)c1CC2 [Compound 11, juncusol]
- decrease in MTT reduction [2]: 25.4%
- IC50 [3]: 36.2 ± 3.81 µM
- IC50 [4]: 44.4 ± 2.82 µM
- CI at ED50 (combination index) ([5]; combination with doxorubicin, COLO 320, 72 h, Chou-Talalay): 0.582
- Interaction ([5]; interaction with doxorubicin in COLO 320, class from CI): synergism (0.3 < CI < 0.7, synergism)
- IC50 (HeLa cells): 0.5 µM
- ED50 [6]: 0.3 mg/L (≈ 1.13 µM)
- IC50 [7]: 31.9 ± 1.91 µM

From publication PMC12386809, “Phenanthrene Monomers and Dimers from Juncus tenuis with Antiproliferative Activity and Synergistic Effect with Doxorubicin Against Human Colon Cancer Cell Lines” (International Journal of Molecular Sciences, 2025)
